Source: the NIST ThermoML archive (doi:10.1021/je0504459)
Numbers after ± are expanded uncertainties.

Tests used:
[1] = 101 kPa, Liquid; for speed of sound: Sing-around technique in a fixed-path interferometer
[2] = xn = mol fraction of the nth substance listed; conditions: 101 kPa, Liquid, x2 = 0; for speed of sound: Sing-around technique in a fixed-path interferometer

kinematic viscosity ([1]; 303.15 K) [m2/s]	mass density ([1]; 303.15 K) [kg/m3]	speed of sound ([1]; 303.15 K) [m/s]	kinematic viscosity ([1]; 313.15 K) [m2/s]	mass density ([1]; 313.15 K) [kg/m3]	speed of sound ([1]; 313.15 K) [m/s]	speed of sound ([2]; 303.15 K) [m/s]	kinematic viscosity ([2]; 303.15 K) [m2/s]	mass density ([2]; 303.15 K) [kg/m3]	speed of sound ([2]; 313.15 K) [m/s]	kinematic viscosity ([2]; 313.15 K) [m2/s]	mass density ([2]; 313.15 K) [kg/m3]	SMILES
6.19e-06 ± 7.1e-08	814.94 ± 0.57	1312 ± 3	4.59e-06 ± 5.5e-08	807.77 ± 0.6	1278 ± 3	–	–	–	–	–	–	CCCCCCCO [heptan-1-ol]
–	–	–	–	–	–	1312 ± 3	6.19e-06 ± 7.1e-08	814.94 ± 0.57	1278 ± 3	4.59e-06 ± 5.5e-08	807.77 ± 0.6	CCCCCCCO [heptan-1-ol] + ClC(Cl)Cl
4.68e-06 ± 5.6e-08	811.65 ± 0.57	1289 ± 3	3.63e-06 ± 4.4e-08	804.24 ± 0.6	1256 ± 3	–	–	–	–	–	–	CCCCCCO [hexan-1-ol]
–	–	–	–	–	–	1289 ± 3	4.68e-06 ± 5.6e-08	811.65 ± 0.57	1256 ± 3	3.63e-06 ± 4.4e-08	804.24 ± 0.6	CCCCCCO [hexan-1-ol] + ClC(Cl)Cl
3.73e-06 ± 4.2e-08	808.6 ± 0.44	1264 ± 3	2.89e-06 ± 3.3e-08	800.99 ± 0.48	1228 ± 3	–	–	–	–	–	–	CCCCCO [pentan-1-ol]
–	–	–	–	–	–	1264 ± 3	3.73e-06 ± 4.2e-08	808.6 ± 0.44	1228 ± 3	2.89e-06 ± 3.3e-08	800.99 ± 0.48	CCCCCO [pentan-1-ol] + ClC(Cl)Cl
3.63e-07 ± 8e-09	1469.21 ± 1.1	969 ± 2	3.39e-07 ± 8e-09	1449.74 ± 1.1	934 ± 2	–	–	–	–	–	–	ClC(Cl)Cl [trichloromethane]
